Test results: US8501755B2, “Tetrahydropyridothienopyrimidine compounds and methods of use thereof” (Bayer Intellectual Property GmbH, priority 2006, dated 2013)
Blank lines part the entries; values can stand above or below the molecule they belong to.

How the values were obtained:
Type in all cases: cell-based
H1975 cells = assay: In vitro tumor cell proliferation assay (Cell Titer-Glo) in H1975 cells; conditions: NCI-H1975; H1975 human NSCLC expressing mutant HER1 (L858R,T790M); 72 hours exposure; read-out: IC50, activities in H 1975 cell lines
From the text: The tumor cell proliferation assay used to test the compounds of the present invention involves a readout called Cell Titer-Glow® Luminescent Cell Viability Assay developed by Promega® (Cunningham, BA “A Growing Issue: Cell Proliferation Assays, Modern kits ease quantification of cell growth” The Scientist 2001, 15(13), 26, and Crouch, S P et al., “The use of ATP bioluminescence as a measure of cell proliferation and cytotoxicity” Journal of Immunological Methods 1993, 160, 81-88), that measures inhibition of cell proliferation. Generation of a luminescent signal corresponds to the amount of ATP present, which is directly proportional to the number of metabolically active (proliferating) cells.
H1975 cells [human non small cell lung carcinoma, ATCC # CRL-5908, expressing mutant HER1 [(EGFR, ErbB1)(L858R,T790M] were plated at a density of 3×10^3 cells/well in 96 well black-clear bottom tissue culture plates in RPMI media with 10% Fetal Bovine Serum and incubated at 37° C. Twenty-four hours later, test compounds are added at a final concentration range from as high 10 uM to as low 64 pM depending on the activities of the tested compounds in serial dilutions at a final DMSO concentration of 0.1%. Cells were incubated for 72 hours at 37° C. in complete growth media after addition of the test compound. After 72 hours of drug exposure, the plates were equilibrated to room temperature for approximately 30 min. Then, using a Promega Cell Titer Glo Luminescent® assay kit, lysis buffer containing 100 microliters of the enzyme luciferase and its substrate, luciferin mixture, was added to each well. The plates were mixed for 2 min on orbital shaker to ensure cell lysis and incubated for 10 min at room temperature to stabilize luminescence signal. The samples were read on VICTOR2 using Luminescence protocol, and analyzed with Analyze5 software to generate IC50 values.

N87 = assay: In vitro tumor cell proliferation assay (Cell Titer-Glo) in N87 cells; conditions: N87 human gastric carcinoma overexpressing HER2 and HER1; 72 hours exposure; read-out: IC50, activities in N87 cell lines
From the text: (§1) The tumor cell proliferation assay used to test the compounds of the present invention involves a readout called Cell Titer-Glow® Luminescent Cell Viability Assay developed by Promega® (Cunningham, BA “A Growing Issue: Cell Proliferation Assays, Modern kits ease quantification of cell growth” The Scientist 2001, 15(13), 26, and Crouch, S P et al., “The use of ATP bioluminescence as a measure of cell proliferation and cytotoxicity” Journal of Immunological Methods 1993, 160, 81-88), that measures inhibition of cell proliferation. Generation of a luminescent signal corresponds to the amount of ATP present, which is directly proportional to the number of metabolically active (proliferating) cells. A431 cells [human epidermoid carcinoma, ATCC # HTB-20, overexpressing HER1 (EGFR, ErbB1)] and N87 [human gastric carcinoma, ATCC # CRL-1555, overexpressing HER2 (ErbB2) and HER1 (EGFR, ErbB1)] were plated at a density of 2.5×10^3 cells/well in 96 well black-clear bottom tissue culture plates in RPMI media with 10% Fetal Bovine Serum and incubated at 37° C. Twenty-four hours later, test compounds are added at a final concentration range from as high 100 μm to as low […] depend on the activities of the tested compounds in serial dilutions at a final DMSO concentration of 0.1%. Cells were incubated for 72 hours at 37° C. in complete growth media after addition of the test compound. After 72 hours of drug exposure, the plates were equilibrated to room temperature for approximately 30 min. Then, using a Promega Cell Titer Glo Luminescent® assay kit, lysis buffer containing 100 microliters of the enzyme luciferase and its substrate, luciferin mixture, was added to each well. The plates were mixed for 2 min on orbital shaker to ensure cell lysis and incubated for 10 min at room temperature to stabilize luminescence signal. The samples were read on VICTOR2 using Luminescence protocol, and analyzed with Analyze5 software to generate IC50 values.

A431 cells = assay: In vitro tumor cell proliferation assay (Cell Titer-Glo) in A431 cells; conditions: Homo sapiens, A-431, 72 h, A431 human epidermoid carcinoma overexpressing HER1; 72 hours exposure; read-out: IC50, activities in A431 cell lines
From the text: as §1

SMILES: O=C(C#CCN1CCOCC1)N1CCc2c(sc3ncnc(Nc4ccc(OCc5cccc(F)c5)c(Cl)c4)c23)C1 [Example 139, N-{3-chloro-4-[(3-fluorobenzyl)oxy]phenyl}-7-(4-morpholin-4-ylbut-2-ynoyl)-5,6,7,8-tetrahydropyrido [4′,3′:4,5]thieno[2,3-d]pyrimidin-4-amine]
IC50 (H1975 cells): 200 to 1000 nM
IC50 (N87): < 200 nM
IC50 (A431 cells): 200 to 1000 nM

SMILES: C=CC(=O)N1CCc2c(sc3ncnc(Nc4ccc(OCc5ccccn5)c(Cl)c4)c23)C1 [Example 28]
IC50 (H1975 cells): < 200 nM
IC50 (N87): < 200 nM
IC50 (A431 cells): 1000 to 10000 nM

SMILES: O=C(/C=C/CN1CCOCC1)N1CCc2c(sc3ncnc(Nc4ccc5c(ccn5Cc5ccccn5)c4)c23)C1 [Example 120, 7-[(2E)-4-morpholin-4-ylbut-2-enoyl]-N-[1-(pyridin-2-ylmethyl)-1H-indol-5-yl]-5,6,7,8-tetrahydropyrido [4′,3′:4,5]thieno[2,3-d]pyrimidin-4-amine]
IC50 (N87): < 200 nM
IC50 (A431 cells): 200 to 1000 nM

SMILES: O=C(C#CCN1CCOCC1)N1CCc2c(sc3ncnc(Nc4ccc(F)c(Cl)c4)c23)C1 [Example 137, N-(3-chloro-4-fluorophenyl)-7-(4-morpholin-4-ylbut-2-ynoyl)-5,6,7,8-tetrahydropyrido [4′,3′:4,5]thieno[2,3-d]pyrimidin-4-amine]
IC50 (N87): < 200 nM
IC50 (A431 cells): 1000 to 10000 nM

SMILES: C#Cc1cccc(Nc2ncnc3sc4c(c23)CCN(C(=O)C#CCN2CCOCC2)C4)c1 [Example 138, N-(3-ethynylphenyl)-7-(4-morpholin-4-ylbut-2-ynoyl)-5,6,7,8-tetrahydropyrido [4′,3′:4,5]thieno[2,3-d]pyrimidin-4-amine]
IC50 (N87): < 200 nM
IC50 (A431 cells): 200 to 1000 nM

SMILES: CC1CCCCN1C/C=C/C(=O)N1CCc2c(sc3ncnc(Nc4ccc(Cl)c(Cl)c4)c23)C1 (stereo not shown) [Example 210, N-(3,4-dichlorophenyl)-7-[(2E)-4-(2-methylpiperidin-1-yl)but-2-enoyl]-5,6,7,8-tetrahydropyrido [4′,3′:4,5]thieno[2,3-d]pyrimidin-4-amine]
IC50 (N87): < 200 nM

Second part, the molecule after the results:

IC50 (H1975 cells): < 200 nM
IC50 (N87): < 200 nM
SMILES: CC(C)N(C)C/C=C/C(=O)N1CCc2c(sc3ncnc(Nc4ccc(F)c(Cl)c4)c23)C1 [Example 36, N-(3-chloro-4-fluorophenyl)-7-{(2E)-4-[isopropyl(methyl)amino]but-2-enoyl}-5,6,7,8-tetrahydropyrido[4′,3′:4,5]thieno[2,3-d]pyrimidin-4-amine]

IC50 (N87): < 200 nM
SMILES: CN(C/C=C/C(=O)N1CCc2c(sc3ncnc(Nc4ccc5c(ccn5Cc5ccccc5)c4)c23)C1)C(C)(C)C [Example 131, N-(1-benzyl-1H-indol-5-yl)-7-{(2E)-4-[tert-butyl(methyl)amino]but-2-enoyl}-5,6,7,8-tetrahydropyrido [4′,3′:4,5]thieno[2,3-d]pyrimidin-4-amine]

IC50 (H1975 cells): 200 to 1000 nM
IC50 (N87): < 200 nM
SMILES: CN(C/C=C/C(=O)N1CCc2c(sc3ncnc(Nc4ccc(F)c(Cl)c4)c23)C1)C(C)(C)C [Example 55, 7-{(2E)-4-[tert-butyl(methyl)amino]but-2-enoyl}-N-(3-chloro-4-fluorophenyl)-5,6,7,8-tetrahydropyrido [4′,3′:4,5]thieno[2,3-d]pyrimidin-4-amine]

IC50 (N87): < 200 nM
IC50 (A431 cells): < 200 nM
SMILES: C#Cc1cccc(Nc2ncnc3sc4c(c23)CCN(C(=O)/C=C/CN2CCN(C)CC2)C4)c1 [Example 18, N-(3-ethynylphenyl)-7-[(2E)-4-(4-methylpiperazin-1-yl)but-2-enoyl]-5,6,7,8-tetrahydropyrido [4′,3′:4,5]thieno[2,3-d]pyrimidin-4-amine]

IC50 (H1975 cells): 1000 to 10000 nM
IC50 (A431 cells): 1000 to 10000 nM
SMILES: O=C(/C=C/Cn1ccnc1)N1CCc2c(sc3ncnc(Nc4ccc(F)c(Cl)c4)c23)C1 [Example 34, N-(3-chloro-4-fluorophenyl)-7-[(2E)-4-(1H-imidazol-1-yl)but-2-enoyl]-5,6,7,8-tetrahydropyrido [4′,3′:4,5]thieno[2,3-d]pyrimidin-4-amine]
